This note sets out measurements from US12544350B2, “Combinatorial antitumor treatment methods and related compositions, kits, and systems” (Klotho Therapeutics, Inc., priority 2021, dated 2026).

The structures appear in SMILES notation.

The subject of the assay is LLC animals. The experiment in a line: Cancer treatment: survival and anti-tumor efficacy in LLC animals (Example 13). The format is in vivo. Particulars: day 15; Compound 22 (50 mg/kg), cisplatin (10 mg/kg). The text has this: Compositions, system, and/or kits of the present disclosure can be effective at treating cancer and/or tumors. For example, a treatment protocol comprising illustrative compound 22 and cisplatin, co-administered is effective as an anti-tumor treatment, in addition to compound 22 preventing/attenuating kidney damage (caused by the chemotherapeutic nephrotoxin), restoring kidney function, and/or increasing patient survival during chemotherapy. FIG. 19 illustrates the survival efficacy of Compound 22 (50 mg/kg), cisplatin (10 mg/kg), and the combination of Compound 22+cisplatin in LLC animals. The co-administration of compound 22 (an illustrative PTBA prodrug) increased the probability of survival in LLC animals at day 15 from ˜75% (cisplatin alone) to ˜95% (Compound 22+cisplatin co-administration). FIG. 20 illustrates the anti-tumor efficacy of Compound 22, cisplatin, and the combination of Compound 22+cisplatin in LLC animals. cisplatin was administered to LLC animals at day 5 and day 14 of a 21 day study. Compound 22 was co-administered (once daily) 48 hours after each dose of cisplatin, and for 6 additional, consecutive days thereafter.

On to `N.N.[Cl][Pt][Cl]` [cisplatin], for which the “probability of survival in LLC animals” value was around 75%.
